# Experimental data as given in patent publication US11897910B2, “Mito-honokiol compounds and methods of synthesis and use thereof” (The Medical College of Wisconsin, Inc., priority 2015, dated 2024).
# Assays:
# [1] = tested on: human MiaPaCa-2 pancreatic cancer cells; assay: Antiproliferative effect on pancreatic cancer cells; assay type: cell-based
# Text: FIG. 3. Comparison of anti-proliferative effects of honokiol (HNK), mito-honokiol (Mito-HNK) and bis-mito-honokiol (Mito-bis-HNK) on human MiaPaCa-2 pancreatic cancer cells.
# FIG. 15A-15F. Effects of mito-honokiol alone or in combination with 2-deoxyglucose on pancreatic cells. […] Further, the combining the mito-honokiols of the present invention with antiglycolytic agents (e.g. 2-deoxyglucose) reduced the rate of proliferation of pancreatic cancer cells than either treatment alone, as shown for a number of different concentrations in FIG. 15C-F.
# The inventors also compared the antiproliferative activity of mito-honokiol analogs to honokiol using human MiaPaCa-2 pancreatic cancer cells (FIG. 3).
# [2] = target: mitochondrial complex I in UACC-62-R cells; assay: Seahorse XF96 bioenergetics (OCR, complex I-mediated respiration, glycolysis); assay type: cell-based, human
# Method: (§1) Melanoma cells harboring BRAF oncogenic mutations use aerobic glycolysis (the Warburg effect) to meet their energy demands. […] One reason for the acquired resistance to PLX4720 is the adaptive change from glycolysis to OXPHOS.
# (§2) We used a Seahorse XF96 Analyzer to measure OCR, a readout of mitochondrial respiration, and […], a surrogate marker for glycolysis, in real time. OCR is measured after adding substrates and inhibitors of complexes I-IV. In preliminary studies, Mito-MGN inhibited complex I activity in both WT and resistant cells (FIG. 21F).
# [3] = tested on: mitochondrial complex I in UACC-62-WT cells; assay: as above; assay type: cell-based, human
# Method: as §1, §2
# UACC-62-R cells [4] = assay: Melanoma cell proliferation monitored in real time; assay type: cell-based, human; details: 0.1-0.3 μM, six days
# Method: (§3) UACC-62-WT cells (A) or UACC-62-R cells (B) were treated with PLX4720 as indicated. Cell proliferation was monitored in real time with the continuous presence of indicated treatments until the end of each experiment. (C) Representative images shown are the segmentation of phase contrast images (segmentation mask illustrated in black). (D) The cell confluence (as control groups reach 95% confluency) is plotted against concentration of PLX4720 inhibitor. Dashed lines represent the fitting curves used to determine the IC50 values. […] (F) The effect of Mito-MGN (0.2 μM) on mitochondrial complex I and II activities (oxygen consumption rate, OCR) is shown for wild-type (red) and resistant UACC-62 (blue) melanoma cells.
# (§4) UACC-62-WT cells (A) or UACC-62-R cells (B) were treated with Mito-MGN as indicated. Cell proliferation was monitored in real time with the continuous presence of indicated treatments until the end of each experiment. (C) Representative images shown are the segmentation of phase contrast images (segmentation mask illustrated in black). (D) The cell confluence (as control groups reach 95% confluency) is plotted against Mito-MGN concentration. Dashed lines represent the fitting curves used to determine the IC50 values.
# (§5) To establish PLX4720-resistant melanoma cell line, UACC-62 cells (ATCC) were continuously exposed to increasing concentrations of PLX4720 (1-20 μM) for six months until the logarithmic growth resumed. PLX4720-containing media were replaced twice a week. Resistant cell line (UACC-62R) was maintained in routine culture in the presence of 20 μM PLX4720. FIGS. 21A and 21B show the effect of PLX4720 on proliferation of UACC-62-WT and UACC-62-R cells.
# (§6) FIGS. 22A and 22B show the effect of Mito-magnolol on proliferation of UACC-62-WT and UACC-62-R cells. Cell proliferation was monitored in real time for cells incubated continuously under treatment conditions as shown.
# UACC-62-WT cells [5] = assay: Melanoma cell proliferation monitored in real time; assay type: cell-based, human
# Method: as §3, §4, §5, §6
# UACC-62-R cells [6] = assay: Hydroethidine oxidation products by HPLC; assay type: cell-based, human; details: 24 h preincubation
# Method: (§7) Mito-magnolol stimulates ROS and causes oxidation of mitochondrial antioxidative enzyme in BRAFV600E inhibitor-resistant melanoma cells. UACC-62-WT and UACC-62-R cells were preincubated with Mito-magnolol for 24 h and then treated with hydroethidine. Cell lysates were analyzed by HPLC and the superoxide-specific hydroxylation product (2-OH-E^+) and other two-electron and one-electron oxidation products (E^+ and E^+-E^+) were determined.
# (§8) Hydroethidine (HE) was used to measure intracellular O2^⋅− formation. 2-Hydroxyethidium (2-OH-E^+), the diagnostic marker product of O2^⋅−/HE reaction (FIG. 23A) increased in Mito-MGN treated melanoma cells (FIG. 23B). In addition, Mito-MGN induced the iron or peroxidase-dependent oxidation of HE as evidenced by enhanced intracellular formation of E^+-E^+ and E^+ (FIG. 23B).
# UACC-62-WT cells [7] = assay: Hydroethidine oxidation products by HPLC; assay type: cell-based, human; details: 24 h preincubation
# Method: as §7, §8
# [8] = tested on: mitochondrial Prx3 in WT melanoma cells; assay: Peroxiredoxin redox status (Western blot); assay type: cell-based, human; details: cytosolic Prx1 largely unaffected
# Text: (§9) (A) Western blot show the redox status of cytosolic (Prx1) and mitochondrial (Prx3) peroxiredoxins. (B) Quantitative analysis of the extent of Prx1 and Prx3 oxidation. Values are mean±SD, n=3. **, P≤0.01. (C) Scheme showing the pathways controlling the redox state and covalent dimer formation of peroxiredoxins in cells.
# (§10) Peroxiredoxins (Prx) are abundant endogenous intracellular thiol peroxidases that act as compartment-specific sensors of hydrogen peroxide (H2O2) in mitochondrial (Prx3) and cytosolic (Prx1) compartments (62-64). Prxs rapidly react with H2O2 (k=10^6-10^7 M^−1 s^−1) (64, 65). Prx3 accounts for nearly 90% of mitochondrial peroxidase activity (64, 66).
# [9] = tested on: mitochondrial Prx3 in resistant melanoma cells; assay: Peroxiredoxin redox status (Western blot); assay type: cell-based, human; details: cytosolic Prx1 largely unaffected
# Text: as §9, §10
# UACC-62 cells = assay: TMRE flow cytometry, mitochondrial depolarization; assay type: cell-based, human; details: pilot experiments
# Text: (A) Representative TMRE quantification using flow cytometry. (B) Mean fluorescence intensity (MFI) of TMRE in Mito-MGN-treated and vehicle (V)-treated UACC-62-WT cells. Values are mean±SEM, n=3
# Not to be bound by any theory, but it is believed that Mito-MGN-induced ROS halts melanoma proliferation through induction of mitophagy. ROS at high μM concentrations have detrimental effects on lipids, proteins, and DNA, whereas at nM concentrations, ROS exerts potent signaling effects (11, 41, 65). We postulate that OXPHOS inhibition by Mito-MGN increases ROS levels, which in turn stimulates mitophagy. To test this hypothesis, we will use an iterative approach to first measure mitochondrial membrane damage, followed by the parallel examination of molecular markers and phagolysome activation needed for mitophagy. Tetramethylrhodamine ethyl ester (TMRE) is retained in metabolically active mitochondria and released into the cytosol and extracellular space of cells with depolarized/damaged mitochondria (67), as illustrated in our recent paper using related mitochondria-targeted agents (12).
# UACC-62-WT cells [10] = assay: UACC-62-WT orthotopic melanoma xenograft; assay type: in vivo, mice; details: 1 mg injected intratumorally in 50 μL
# Method: (A) Representative μCT images on day 58 from UACC-62-WT xenographed (T=tumor) mice treated twice a week with vehicle (left) or 1 mg Mito-MGN (right). Data representative of 2 mice per group. (B) Quantification of tumor volume (mm^3) measured using calipers ex vivo on day 58.
# The efficacy of Mito-MGN in a murine model of melanoma was tested using cells sensitive and resistant to BRAF inhibitors as tools to probe the anti-tumor effects of targeted OXPHOS inhibitors.
# B16.F10 cells = assay: B16.F10 orthotopic melanoma model; assay type: in vivo, mice
# Method: (A) Kaplan-Maier survival curves of B16-F10 engrafted mice treated on days 7, 9, 11, 14, 16, & 18 with Mito-MGN [1 mg] or with α-PD-L1 [250 μg]. (B) Tumor size (mm2) over time. (C) Tumor volume measured on day 19. Values are mean±SD, n=4 mice/group. ***, P≤0.001.
# T cells were detected using CD3 immunostaining (brown). Arrowheads highlight CD3+ T cells in melanoma (blue cells). Data representative of 4 separate mice.
# [11] = Serum toxicity markers (pilot study); details: three weekly treatment at 5 mg/kg
# DMS-273 cells = assay: Cell proliferation assay (IncuCyte); assay type: cell-based; details: Homo sapiens
# Method: (§11) For the cell proliferation assay, cells were seeded onto 96-well tissue culture plates at 2-3,000 cells per well. Twenty-four hours after seeding, treatment group cells were exposed to various concentrations of HNK for 48 hours, and control group cells received fresh medium. The plate was incubated at 37° C. and 5% CO2 and monitored in IncuCyte (Essen Bioscience, Ann Arbor, MI). Data analysis was conducted using IncuCyte […] software. All assays were performed in triplicate. Next, we examined the anticancer effects of Mito-HNK compared to HNK in vitro. Various doses of HNK and Mito-HNK were treated in either H2030-BrM3 or DMS-273 cells, and the antiproliferative effects were monitored with an IncuCyte Live-Cell Imaging Analyzer. […] Furthermore, we examined the anti-invasive effects of Mito-HNK in H2030-BrM3 and DMS-273 cells via a Boyden chamber invasion assay. Both cells were treated with vehicle control (DMSO), HNK (20 μM), and Mito-HNK (0.2 μM) for 36 hours, and invaded cells were determined.
# H2030-BrM3 cells = assay: Cell proliferation assay (IncuCyte); assay type: cell-based; details: Homo sapiens
# Method: as §11
# [12] = tested on: H2030-BrM3 and DMS-273 orthotopic lung tumors; assay: Orthotopic lung cancer model; assay type: in vivo, mice
# Method: DM273 cells (1×10^6 cells/50 μg of growth factor reduced Matrigel in 50 μL of RPMI-1640 medium) were injected into the left lung. One week after injection, mice were treated with the same dose of HNK or Mito-HNK (7.5 μmol/kg) or vehicle (corn oil) by oral gavage five times per week for three weeks). […] Five-week-old male athymic nude mice were used for experiments. Mice were anesthetized with isoflurane and placed in the right lateral decubitus position. A total of 1×10^6 H2030-BrM3 cells in 50 μg of growth factor reduced Matrigel (BD Biosciences, San Jose, CA) in 50 μL of RPMI-1640 medium were injected through the left rib cages of mice into their left lungs, as previously described (Nguyen et al., 2009). […] Tumor growth and metastases phenotypes were monitored during this time by bioluminescence with an Xenogen IVIS-200. Mice were sacrificed at the endpoint; tissues were extracted, freshly frozen, and OCT-fixed or formalin-fixed with 10% zinc for later western blot and immunohistochemistry (IHC) analyses.
# MiaPaCa-2 cells = assay: Intracellular ATP, combination with 2-deoxyglucose; assay type: cell-based, human; details: combined with 2-deoxyglucose (2-DG)
# Text: FIG. 4. Synergistic depletion of intracellular ATP in MiaPaCa-2 cells by combination of 2-deoxyglucose (2-DG) and honokiol (HNK) and mito-honokiol (Mito-HNK). The data were obtained on the human pancreatic cancer MiaPaCa-2 cell line. […] In one embodiment, the mito-honokiols of the present invention may be also used in combination with standard-of-care chemotherapeutics or with ionizing radiation to treat resistant cancer cells.
# STAT3 phosphorylation = assay: PathScan RTK signaling array; assay type: cell-based; details: DMS-273 cells; HNK 10 μM and 20 μM, Mito-HNK 0.2 μM, six hours
# Method: H2030-BrM3 and DMS-273 cells treated with control DMSO and various doses of HNK and Mito-HNK for four hours were lysed with 200 μl lysis buffer containing proteinase inhibitor cocktails (Cell Signaling Technology, Danvers, MA), sheared 10 times with a 28-gauge needle, spun at 16,000×g for 30 min, and normalized by protein concentration as determined by the Bradford method. Normalized lysate was resolved in a PathScan RTK Signaling Array, and the signaling array was examined by a Li-COR Odyssey infrared imaging system (Li-COR Biosciences-Biotechnology, Lincoln, NE).
# For the RTK signaling array, we treated DMS-273 cells with two different doses of HNK (10 μM and 20 μM) and Mito-HNK (0.2 μM) for six hours.
# [13] = 1 mg/tumor Mito-MGN or 250 μg anti-PD-L1 antibody
compound,measurement,setting,value
C=CCc1ccc(O)c(-c2cc(CC=C)ccc2OC[P+](c2ccccc2)(c2ccccc2)c2ccccc2)c1.[Br-] [Mito-MGN],antiproliferative effects,"[1]; 1 μM, FIG. 15B",exhibit antiproliferative effects
same,IC50,"[2]; read-out: IC50 to inhibit complex I-mediated respiration, 1 h treatment, UACC-62-R",0.66 µM
same,OXPHOS (OCR),[2]; resistant cells,significantly inhibiting OXPHOS
same,glycolysis (SCAR/PPR),[2]; resistant cells,minimally affected glycolysis
same,OXPHOS (OCR),[3]; WT cells,significantly inhibiting OXPHOS
same,glycolysis (SCAR/PPR),[3]; WT cells,minimally affected glycolysis
same,IC50,"[3]; read-out: IC50 to inhibit complex I-mediated respiration, 1 h treatment, UACC-62-WT",0.35 µM
same,sensitivity of proliferation,UACC-62-R cells [4],exquisitely sensitive
same,sensitivity of proliferation,"UACC-62-WT cells [5]; 0.1-0.3 μM, six days",exquisitely sensitive
same,"HE oxidation products 2-OH-E+, E+ and E+-E+",UACC-62-R cells [6],significantly higher amount
same,"HE oxidation products 2-OH-E+, E+ and E+-E+",UACC-62-WT cells [7],significantly higher amount
same,oxidation of mitochondrial Prx3,[8],stimulated the oxidation of mitochondrial Prx3
same,oxidation of mitochondrial Prx3,[9],stimulated the oxidation of mitochondrial Prx3
same,mitochondrial membrane potential (TMRE),UACC-62 cells,dose dependently decreases mitochondrial membrane potential
same,tumor size (μCT in vivo and ex vivo excised tumors),UACC-62-WT cells [10],potently reduced tumor size
same,melanoma growth in vivo,B16.F10 cells; [13],decreased melanoma growth
same,survival,B16.F10 cells; [13],increased survival
same,T cell levels in excised tumors (CD3 immunostaining),B16.F10 cells; compared to vehicle control tumors,increased T cell levels
same,efficiency in abrogating tumor progression and size,B16.F10 cells; compared with anti-PD-L1,equal to anti-PD-L1
same,BUN,"[11]; serum, day 19, Mean ± SE, n = 4-5, ref (12-28)",24.5 ± 1.9 mg/dL
same,ALT,"[11]; serum, day 19, Mean ± SE, n = 4-5, ref (22-77)",58.7 ± 12.7 IU/L
same,AP,"[11]; serum, day 19, Mean ± SE, n = 4-5, ref (45-222)",36.7 ± 10.8 IU/L
same,liver or kidney toxicity,[11],little liver or kidney toxicity
"C=CCc1ccc(O)c(-c2ccc(O)c(CC=C)c2)c1 [HNK, honokiol]",IC50,DMS-273 cells,30 µM
same,IC50,H2030-BrM3 cells,27 µM
same,tumor growth,[12]; 7.5 μmol/kg oral gavage five times per week for three weeks,did not significantly reduce tumor growth
same,observable side effects,[12]; H2030-BrM3 and DMS-273 orthotopic models,did not show any observable side effects
same,cellular ATP levels,MiaPaCa-2 cells,synergize with 2-deoxyglucose (2-DG) in decreasing cellular ATP levels
same,STAT3 phosphorylation levels,STAT3 phosphorylation,dramatically decreased
C=CCc1ccc(OCCCCCCCCCC[P+](c2ccccc2)(c2ccccc2)c2ccccc2)c(-c2ccc(OCCCCCCCCCC[P+](c3ccccc3)(c3ccccc3)c3ccccc3)c(CC=C)c2)c1 [Bis-Mito-HNK],antiproliferative potency compared with honokiol,[1]; MiaPaCa-2,more potent than honokiol
"CCCS(=O)(=O)Nc1ccc(F)c(C(=O)c2c[nH]c3ncc(Cl)cc23)c1F [PLX4720, reference compound]",cells after six days of treatment (phase contrast images),"UACC-62-WT cells [5]; 10 μM, WT versus resistant cells",considerably fewer WT cells compared to resistant cells
